In paper PMC10221708, “Synthesis and Antimalarial Evaluation of Halogenated Analogues of Thiaplakortone A” (Marine Drugs, 2023):
Entries after “also recorded” stand apart in the source; their conditions may differ. Read-outs that look alike come from different tables or passages of the source.

Legend:
[1] = system: Plasmodium falciparum 3D7; assay: In vitro antimalarial image-based asexual assay, 3D7; format: cell-based; conditions: for IC50: Plasmodium falciparum, 3D7, chloroquine-sensitive strain, 72 h, n = 4, read-out: Pf 3D7 IC50 ± SD; for SI for 3D7: SI = HEK293 IC50/parasite IC50
Protocol: (§1) Plasmodium falciparum 3D7 and Dd2 parasites were cultured in RPMI1640 (Life Technologies, Camarillo, CA, USA) supplemented with 2.5 mg/mL Albumax II, 5% AB human serum, 25 mM HEPES and 0.37 mM hypoxanthine. Ring-stage parasites were treated with compounds following two rounds of sorbitol synchronisation as previously described. Artesunate, pyrimethamine and puromycin were incorporated as controls. Following incubation of assay plates for 72 h at 37 °C, and 5% CO2 and 5% O2, parasites were stained with 2-(4-amidinophenyl)-1H-indole-6-carboxamidine (DAPI) and imaged using an Opera QEHS confocal imaging system (PerkinElmer, Waltham, MA, USA). Images were analysed as previously described using Acapella spot detection software (PerkinElmer, Waltham, MA, USA).

[2] = system: Plasmodium falciparum Dd2; assay: In vitro antimalarial image-based asexual assay, Dd2; format: cell-based; conditions: for IC50: Plasmodium falciparum, DD2, 72 h, n = 4, read-out: Pf Dd2 IC50 ± SD; for SI for Dd2: SI = HEK293 IC50/parasite IC50
Protocol: as §1

HEK293 cells [3] = assay: In vitro cytotoxicity assay (Alamar Blue); format: cell-based, human; conditions: for IC50: HEK293, 72 h, n = 2
Protocol: Human embryonic kidney cells (HEK293) were maintained in DMEM (Life Technologies, Camarillo, CA, USA) containing 10% FBS (Hyclone™ ThermoFisher, Melbourne, Australia). Cytotoxicity testing was undertaken as previously described. In brief, 5 μL of test compound was added/well of black/clear tissue culture treated 384-well plates containing 3000 adherent HEK293 cells/well in 45 μL and incubated 72 h at 37 °C in 5% CO2. After incubation, the supernatant was removed and replaced with 40 μL of 10% Alamar Blue per well. Plates were incubated for 5–6 h and measured for fluorescence at 530 nm excitation and 595 nm emission. The % inhibition was calculated using 0.4% DMSO (no inhibition) and 5 μM puromycin (100% inhibition) data. IC50 values were obtained by plotting % inhibition against log dose using GraphPad Prism v.6 (San Diego, CA, USA), nonlinear regression with a variable slope plot.

[4] = system: Plasmodium falciparum 3D7; set-up: method as in PMID 24032556; conditions: cited from earlier work; for IC50: drug-sensitive strain, read-out: IC50 Pf (3D7)
[5] = system: Plasmodium falciparum Dd2; set-up: method as in PMID 24032556; conditions: cited from earlier work; for IC50: drug-resistant strain, read-out: IC50 Pf (Dd2)
HEK293 cells [6] = system: HEK293 cells; set-up: method as in PMID 24032556; conditions: cited from earlier work
[7] = controls, drug-resistant strain
[8] = Homo sapiens, controls, read-out: HEK293 IC50 ± SD
[9] = chloroquine, pyrimethamine and mefloquine drug-resistant strain, mean ± SD
[10] = human embryonic kidney cells, mean ± SD
[11] = N-Boc group of compound 7 removed
[12] = bromine at C-2 replaced with iodine

| SMILES | SI for 3D7 [1] | SI for Dd2 [2] | IC50 ([1]; mean ± SD) | IC50 [2, 9] | IC50 (HEK293 cells [3]; [10]) | other results |
| --- | --- | --- | --- | --- | --- | --- |
| C[C@H]1[C@H](OC(=O)CCC(=O)O)O[C@@H]2O[C@@]3(C)CC[C@H]4[C@H](C)CC[C@@H]1[C@@]24OO3 [Artesunate, reference compound] | >8163 | >10,526 | – | – | – | IC50 ([1]; controls): 0.00049 ± 0.0002 µM; IC50 [2, 7]: 0.00038 ± 1e-05 µM; IC50 (HEK293 cells [3]; [8]): > 4 µM |
| NCCc1c[nH]c2c1C(=O)C1=C(NC=CS1(=O)=O)C2=O [Compound 1, thiaplakortone A] | 22 | 150 | 0.061 ± 0.009 µM | 0.008 ± 0.001 µM | 1.32 ± 0.092 µM | selectivity index against 3D7 ([4]; HEK293 vs 3D7): 76; IC50 [4]: 0.051 µM; selectivity index against Dd2 ([5]; HEK293 vs Dd2): 591; IC50 [5]: 0.0066 µM; cytotoxicity against HEK293 cells (HEK293 cells [6]): low cytotoxicity |
| CC(C)(C)OC(=O)NCCc1c[nH]c2c1C(=O)C1=C(NC=CS1(=O)=O)C2=O [Compound 2, Boc-protected thiaplakortone A] | 24 | 64 | 0.227 ± 0.044 µM | 0.086 ± 0.012 µM | 5.53 ± 0.021 µM | – |
| CC(C)(C)OC(=O)NCCc1c[nH]c2c1C(=O)C1=C(NC=C(Br)S1(=O)=O)C2=O [Compound 3] | >23 | >137 | 3.52 ± 0.35 µM | 0.583 ± 0.094 µM | > 80 µM | – |
| CC(C)(C)OC(=O)NCCc1c(Br)[nH]c2c1C(=O)C1=C(NC=C(Br)S1(=O)=O)C2=O [Compound 4] | >58 | >39 | 1.37 ± 0.117 µM | 2.06 ± 0.192 µM | > 80 µM | fold decrease in antimalarial activity against 3D7 upon removal of the Boc group ([1]; compound 4 after Boc removal): 1.2 fold |
| NCCc1c[nH]c2c1C(=O)C1=C(NC=C(Br)S1(=O)=O)C2=O [Compound 5] | >143 | >1379 | 0.559 ± 0.145 µM | 0.058 ± 0.016 µM | > 80 µM | cytotoxicity against HEK293 cells observed at 80 μM (HEK293 cells [3]; 80 μM (top screening concentration)): minimal cytotoxicity; also recorded: minimal toxicity |
| NCCc1c(Br)[nH]c2c1C(=O)C1=C(NC=C(Br)S1(=O)=O)C2=O [Compound 6] | >48 | >164 | 1.65 ± 0.194 µM | 0.487 ± 0.098 µM | > 80 µM | – |
| CC(C)(C)OC(=O)NCCc1c[nH]c2c1C(=O)C1=C(NC=C(I)S1(=O)=O)C2=O [Compound 7] | >14 | >67 | 5.62 ± 0.383 µM | 1.19 ± 0.27 µM | > 80 µM | – |
| CC(C)(C)OC(=O)NCCc1c(I)[nH]c2c1C(=O)C1=C(NC=C(I)S1(=O)=O)C2=O [Compound 8] | >49 | >121 | 1.62 ± 0.154 µM | 0.659 ± 0.119 µM | > 80 µM | – |
| NCCc1c[nH]c2c1C(=O)C1=C(NC=C(I)S1(=O)=O)C2=O [Compound 9] | >36 | >252 | 2.22 ± 0.248 µM | 0.317 ± 0.008 µM | > 80 µM | fold increase of antimalarial activity against 3D7 versus compound 7 [1, 11]: 2.5 fold; fold reduction of antimalarial activity against 3D7 versus compound 5 [1, 12]: 3.9 fold; fold increase of antimalarial activity against Dd2 versus compound 7 [2, 11]: 3.7 fold; fold reduction of antimalarial activity against Dd2 versus compound 5 [2, 12]: 5.5 fold |
| NCCc1c(I)[nH]c2c1C(=O)C1=C(NC=C(I)S1(=O)=O)C2=O [Compound 10] | >47 | >110 | 1.69 ± 0.316 µM | 0.725 ± 0.244 µM | > 80 µM | – |
| NCCc1c(C(F)(F)F)[nH]c2c1C(=O)C1=C(NC=C(C(F)(F)F)S1(=O)=O)C2=O [Compound 11] | >12 | >18 | 6.8 ± 2.44 µM | 4.55 ± 1.15 µM | > 80 µM | – |
| COc1ccc(C[C@H](N)C(=O)N[C@H]2[C@@H](O)[C@H](n3cnc4c(N(C)C)ncnc43)O[C@@H]2CO)cc1 [Puromycin, reference compound] | 33 | 61 | – | – | – | IC50 ([1]; controls): 0.0319 ± 0.0162 µM; IC50 [2, 7]: 0.017 ± 0.00396 µM; IC50 (HEK293 cells [3]; [8]): 1.04 ± 0.066 µM |
| CCc1nc(N)nc(N)c1-c1ccc(Cl)cc1 [Pyrimethamine, reference compound] | >10,666 | – | – | – | – | IC50 ([1]; controls): 0.00375 ± 0.0003 µM; IC50 [2, 7]: > 40 µM; IC50 (HEK293 cells [3]; [8]): > 40 µM |
| NCCc1c[nH]c2c1C(=O)C1=C(NCCS1(=O)=O)C2=O [Thiaplakortone B] | – | – | – | – | – | IC50 [4]: 0.65 µM; IC50 [5]: 0.092 µM |
| CN[C@@H](Cc1c[nH]c2c1C(=O)C1=C(NC=CS1(=O)=O)C2=O)C(=O)O [Thiaplakortone C] | – | – | – | – | – | IC50 [4]: 0.31 µM; IC50 [5]: 0.17 µM |
| CN[C@@H](Cc1c[nH]c2c1C(=O)C1=C(C2=O)S(=O)(=O)C=CN1)C(=O)O [Thiaplakortone D] | – | – | – | – | – | IC50 [4]: 0.28 µM; IC50 [5]: 0.16 µM |
